Experimental data: patent US20190350940A1, “PLATINUM COMPOUNDS, COMPOSITIONS, AND USES THEREOF” (priority 2015, published 2019)
“And” between values parts separate entries of the source, which are not always exact repeats. Equal entries are not always repeated. “Also recorded” adds a separate entry of the source.

What was measured:
rat plasma = experiment: In vitro plasma protein binding, rat plasma (Compound 8-DMPK-008); assay type: in vitro ADME; conditions: incubation 10 minutes at 37° C.
female Beagle dogs = experiment: Cardiovascular and respiratory effects in Beagle dogs (Compound 8-TX-005); assay type: in vivo, dog
Method: The cardiovascular and respiratory effects of Compound 8 administered IV were evaluated in Beagle dogs (Compound 8-TX-005).

[1] = Temperature effects: mock manufacturing process; assay type: physicochemical; conditions: after 24 hrs
Method: In order to determine the effect of both temperature and light on the formation of the two main degradation products, mock manufacturing processes and mock clinical dilution studies were conducted. The mock process was simulated by formulating and holding the Compound 8 drug product at room temperature or under cold conditions (e.g. ice bath) for discreet amounts of time that would simulate the large scale manufacturing process. Once the samples went through the mock manufacturing process, they were stored at −20° C., as a frozen solution, and then thawed as they would be in the clinic prior to administration. For the mock clinical dilution study, each solution was diluted in saline, at the lowest dilution factor expected in the clinic. Then the diluted formulations were stored in syringes at room temperature and then assayed for potency and total impurities (from both procedures) at the end of the day.
For the mock manufacturing process, the room temperature samples were formulated and stored at room temperature for a total of 8 hrs and then refrigerated overnight. In contrast, the cold samples were formulated on ice, stored in the 2-8° C. for a total of 8 hrs, and at the end of the day frozen to −20° C.

CYP2C19 = CYP2C19 (Homo sapiens, UniProt P33261); experiment: CYP inhibition, 2C19; assay type: in vitro ADME
Sequence of CYP2C19 (P33261 whole entry): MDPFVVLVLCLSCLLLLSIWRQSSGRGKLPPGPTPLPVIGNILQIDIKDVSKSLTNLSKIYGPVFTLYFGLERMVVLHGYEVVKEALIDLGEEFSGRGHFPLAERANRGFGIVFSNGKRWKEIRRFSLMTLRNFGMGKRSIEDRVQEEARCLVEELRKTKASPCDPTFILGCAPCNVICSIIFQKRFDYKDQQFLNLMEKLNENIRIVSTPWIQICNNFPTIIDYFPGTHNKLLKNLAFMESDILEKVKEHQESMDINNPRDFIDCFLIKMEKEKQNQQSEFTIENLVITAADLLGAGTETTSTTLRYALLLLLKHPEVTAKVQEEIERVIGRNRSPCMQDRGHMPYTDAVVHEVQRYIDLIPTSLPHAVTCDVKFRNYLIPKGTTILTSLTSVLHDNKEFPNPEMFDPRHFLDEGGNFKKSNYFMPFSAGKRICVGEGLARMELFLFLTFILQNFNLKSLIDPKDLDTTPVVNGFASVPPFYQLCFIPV

[2] = Total plasma and plasma ultrafiltrate platinum pharmacokinetics in mouse; assay type: in vivo
Method: Nonclinical studies were performed to evaluate the PK of platinum in plasma after IV administration of Compound 8 in the mouse, rat, and dog. The analyses included platinum levels both in total plasma as well as plasma ultrafiltrate.
Compound 8 was administered in 2 different formulations in mice. The formulation used in pharmacology studies was 5% dimethyl sulfoxide (DMSO)/10% Solutol/Saline, and the formulation used in PK studies was 5 mM citrate pH about 4; this latter formulation is that used in GLP toxicology studies in the rat and is the human clinical formulation.

[3] = pH stability: acidifying agents versus citrate buffered saline; assay type: physicochemical; conditions: room temperature
Method: In order to determine whether a buffer would be required to maintain stability, two acidifying agents, hydrochloric acid and citric acid, were evaluated with respect to a control formulation in 5 mM citrate buffered saline. All vehicles were brought to a pH of 4 in saline and each formulation was made at 1 mg/ml concentration in each vehicle.

CYP3A4 = CYP3A4 (Homo sapiens, UniProt P08684); experiment: CYP inhibition, 3A4; assay type: in vitro ADME
Sequence of CYP3A4 (P08684 whole entry): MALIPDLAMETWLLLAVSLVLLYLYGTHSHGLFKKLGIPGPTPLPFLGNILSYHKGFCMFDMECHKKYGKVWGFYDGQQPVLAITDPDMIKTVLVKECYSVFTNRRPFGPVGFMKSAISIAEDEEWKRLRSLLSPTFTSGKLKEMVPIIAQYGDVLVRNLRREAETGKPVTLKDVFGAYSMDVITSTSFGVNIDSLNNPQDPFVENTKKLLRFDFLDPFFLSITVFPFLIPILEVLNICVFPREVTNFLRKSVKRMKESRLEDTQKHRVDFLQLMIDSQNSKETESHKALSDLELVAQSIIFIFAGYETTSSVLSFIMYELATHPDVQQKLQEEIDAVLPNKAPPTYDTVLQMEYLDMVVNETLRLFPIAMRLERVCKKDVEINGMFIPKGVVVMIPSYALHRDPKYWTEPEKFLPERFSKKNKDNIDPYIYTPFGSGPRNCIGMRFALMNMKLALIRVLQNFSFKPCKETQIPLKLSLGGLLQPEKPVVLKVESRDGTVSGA

[4] = Vial selection: clear versus amber (light versus dark); assay type: physicochemical; conditions: 5 mM citrate buffer saline pH about 4, room temperature 24 hours
Method: To compare light versus dark conditions, Compound 8 was formulated in 5 mM citrate buffer saline at pH about 4 and placed into two separate vials (one clear and the other amber). The formulations were stored at room temperature for 24 hours and the amount of Impurity 1 and Impurity 2 was observed. From the FIGS. 4 and 5, it can be seen that exposing the Compound 8 solution to light in a clear vial caused an increase in the amount of Impurity 1 in comparison to the solution contained in an amber vial (˜10% Impurity 1 compared to ˜0.75% Impurity 1). […] Also, from these experiments it was concluded that the formation of Impurity 2 is not photosensitive but dependent upon the pH of the formulation.

[5] = tested on: BxPC-3 human pancreatic adenocarcinoma; experiment: BxPC-3 pancreatic xenograft model; assay type: in vivo, mouse; conditions: female, Crl:NU(NCr)-Foxn1^nu nude, mouse, in vivo, 20 mg/kg, 13 day
Method: The effect of Compound 8 on TGI was evaluated in the BxPC-3 human pancreatic adenocarcinoma nude mouse (female Crl:NU(NCr)-Foxn1^nu) xenograft model.

[6] = Platinum pharmacokinetics/toxicokinetics in rat; conditions: in vivo
Method: Platinum in the plasma ultrafiltrate was considered free drug (non-protein bound), while the platinum in the plasma was a combination of protein bound and free drug.
Groups of 30 animals (15/sex) each received vehicle control or Compound 8 9, 14, 19, or 6 mg/kg. Groups of 20 animals (10/sex) received Compound 8 9, 14, 19, or 6 mg/kg and 6 animals (3/sex) received vehicle control in the TK portion of the study.

Beagle dogs = experiment: Single dose intravenous dose range-finding toxicity study in Beagle dogs (Compound 8-TX-002); assay type: in vivo, dog
Method: (§1) This study (Compound 8-TX-002) was conducted to evaluate and characterize the acute toxicity and to determine an MTD of Compound 8 when administered once via IV injection to the dog, and to assist in dose selection for a subsequent dog cardiovascular study (Compound 8-TX-005). The test article, Compound 8, was formulated prior to dosing, as a solution in 5 mM citrate buffered saline (0.9% sodium chloride), pH about 4-4.5 at nominal concentrations of 1.2, 2.4, 4.0, and 4.8 mg/mL. Dose formulations were all within the acceptance criteria (+10% of target concentration) ranging from 92.1 to 99.8 percent of target concentration.
(§2) Groups of 2 animals each (1 male, 1 female) received Compound 8 at doses of 3, 6, 10, or 12 mg/kg. Assessment of toxicity was based on mortality, clinical observations, body weight, and qualitative food assessment; physical examinations; and clinical pathology. Toxicokinetic assessment was conducted for platinum concentration in the plasma and plasma ultrafiltrate.

[7] = as above; assay type: in vivo, dog; conditions: both sexes, Beagle, in vivo; single IV dose, dog
Method: as §1, §2

[8] = formulated under cold conditions

For `CC(=O)[O][Pt]([NH2])([NH2])([Cl])([Cl])[O]C(=O)NCCCCCN1C(=O)C=CC1=O` [Compound 8], the Protein bound (rat plasma) was over 99%, the “Increases in blood pressure (slight, non-dose-dependent)” value (female Beagle dogs; 6 and 10 mg/kg, between 6 and 12 hours following treatment) was 9-16 % above controls and the “Doses with no observable adverse effects on cardiovascular or pulmonary function” value (female Beagle dogs; IV, female Beagle dogs) was at most 10 mg/kg. The “Doses with no observable adverse effects on cardiovascular or pulmonary function, as HED” value (female Beagle dogs; IV, female Beagle dogs) was at most 200 mg/m^2, the “Test article-related clinical observations” value (female Beagle dogs; all animals, approximately 24 hours post-dose) was “observations of vomitus” and the “Mortality, body temperature, heart rate, ECG parameters (PR, RR, QRS, QT, QTc), respiratory rate” value (female Beagle dogs; single IV injection 6 and 10 mg/kg, female Beagle dogs) was “did not produce mortality or changes”. For the same compound, the “Formation of Impurity 1” value ([1]; formulated at room temperature) was about 0.8%, the “Formation of Impurity2” value ([1]; formulated at room temperature) was about 0.3% and the “Formation of Impurity 1” value [1, 8] was under 0.3%. The “Formation of Impurity2” value [1, 8] was about 0.1%, the IC50 (CYP2C19) was 2720 nM and the “Dose (MTD)” value [2] was 41.8 (MTD) mg/m^2. The “Mean difference of AUC(0-48h) between the 2 formulations” value ([2]; in vivo) was 5%, the “Portion of platinum in circulation free in the ultrafiltrate” value ([2]; in vivo) was under 1% and the “Ultrafiltrate platinum to total ratio at Cmax” value ([2]; in vivo) was 0.06. The “Ultrafiltrate to total AUC ratio” value ([2]; in vivo) was 0.0056, the “Plasma free platinum AUC” value ([2]; in vivo, iv) was 20.6 µM·h and the “Plasma free platinum Cmax” value ([2]; in vivo, iv) was 15.9 µM. For the same compound, the “Impurity 2 formation” value ([3]; 1 mg/ml in 5 mM citrate buffered saline pH 4, 24 hr) was “inhibits the formation of Impurity 2”, the “Impurity 2 formation” value ([3]; 1 mg/ml in saline brought to pH 4 with hydrochloric acid, after 24 hrs) was “over 2 % by area” and the IC50 (CYP3A4) was 1960 nM. For the same compound, the “Amount of Impurity 1” value ([4]; amber vial (dark)) was about 0.75%, the “Amount of Impurity 1” value ([4]; clear vial (light)) was about 10% and the “Amount of Impurity 2” value ([4]; clear vial (light)) was 0.5%. For the same compound, the Treatment-related side effects [5] was “swollen tails on Day 13 in all animals”, the “Ultrafiltrate levels as share of the total platinum levels” value ([6]; both) was “approximately 1%” and the “RBC platinum concentrations, Day 21 relative to Day 1” value ([6]; 19 mg/kg) was “did not result in significant accumulation of platinum in the RBCs”. The “Decrease in body weight” value (Beagle dogs; 12 mg/kg animals) was “exceeded 10%”, the “Chemistry, coagulation, or urinalysis parameters” value (Beagle dogs; 3, 6, 10, 12 mg/kg) was “no definitive effects” and the Hematology parameters (Beagle dogs; both sexes, all groups (3, 6, 10, 12 mg/kg)) was “decreases in reticulocytes, red cell mass, neutrophils and platelets”. For the same compound, the MTD (Beagle dogs; single IV dose, dog, corresponds to 10 mg/kg) was 200 mg/m^2 and 205 (MTD) mg/m^2, the “Mortality and treatment-related clinical observations” value (Beagle dogs; up to 12 mg/kg (240 mg/m^2)) was “no mortalities or treatment related clinical observations; also recorded: no mortalities” and the MTD [7] was 10 mg/kg.
